# Experiments:
# [1] = tested on: Corynespora cassiicola G413A mutant; assay: Microtest: activity against Corynespora cassiicola G413A mutant in the microtiterplate test; assay type: cell-based; conditions: 31 ppm, relative to active compound-free control (100%)
# Excerpt: (§1) The active compounds were formulated separately as a stock solution having a concentration of 10000 ppm in dimethyl sulfoxide.
# (§2) The stock solutions were mixed according to the ratio, pipetted onto a micro titer plate (MTP) and diluted with water to the stated concentrations.
# (§3) The measured parameters were compared to the growth of the active compound-free control variant (100%) and the fungus-free blank value to determine the relative growth in % of the pathogens in the respective active compounds.
# A spore suspension of Corynespora cassiicola in an aqueous biomalt or yeast-bactopeptone-sodiumacetate solution was then added.
# [2] = tested on: Cercospora zeae maydis; assay: Microtest: activity against Cercospora zeae maydis in the microtiterplate test; assay type: cell-based; conditions: 31 ppm; relative to active compound-free control (100%)
# Excerpt: as §1, §2, §3
# A spore suspension of Cercospora zeae maydis in an aqueous biomalt or yeast-bactopeptone-sodiumacetate solution was then added.
structure (smiles),measurement,setting,value
CCC1(C)N=C(c2cnc(C(F)F)c(C)c2)c2cccc(F)c2N1 (racemic) [Ex-25],growth of the pathogen (relative growth in %),[1],19%
Cc1cc(C2=NC(C)(CC(C)C)Nc3c(F)cccc32)cnc1C(F)F (racemic) [Ex-26],growth of the pathogen (relative growth in %),[1],19%
CCC1(C)N=C(c2cnc(C(F)F)c(C)c2)c2cccc(F)c2N1C (racemic) [Ex-29],growth of the pathogen (relative growth in %),[1],19%
same,growth of the pathogen (relative growth in %),[2],17%
Cc1cc(C2=NC(C)(CC(C)C)N(C)c3c(F)cccc32)cnc1C(F)F (racemic) [Ex-32],growth of the pathogen (relative growth in %),[1],19%
Cc1cc(C2=NC(C)(CC(C)C)N(C#N)c3c(F)cccc32)cnc1C(F)F (racemic) [Ex-41],growth of the pathogen (relative growth in %),[1],19%
same,growth of the pathogen (relative growth in %),[2],17%
Cc1cc(C2=NC(C)(C3CC3)N(C)c3c(F)cccc32)cnc1C(F)F (racemic) [Ex-56],growth of the pathogen (relative growth in %),[1],19%
same,growth of the pathogen (relative growth in %),[2],17%
Cc1cc(C2=NC(C)(c3ccccc3)N(C)c3c(F)cccc32)cnc1C(F)F (racemic) [Ex-60],growth of the pathogen (relative growth in %),[1],19%
same,growth of the pathogen (relative growth in %),[2],17%
Cc1cc(C2=NC(C)(c3ccccn3)N(C)c3c(F)cccc32)cnc1C(F)F (racemic) [Ex-61],growth of the pathogen (relative growth in %),[1],19%
same,growth of the pathogen (relative growth in %),[2],17%
Cc1cc(C2=NC(C)(C)Nc3c(F)cccc32)cnc1C(F)F [Ex-5],growth of the pathogen (relative growth in %),[1],19%
same,growth of the pathogen (relative growth in %),[2],17%
Cc1cc(C2=NC(C)(C)N(C)c3c(F)cccc32)cnc1C(F)F [Ex-6],growth of the pathogen (relative growth in %),[1],19%
same,growth of the pathogen (relative growth in %),[2],17%
CCN1c2c(F)cccc2C(c2cnc(C(F)F)c(C)c2)=NC1(C)C [Ex-7],growth of the pathogen (relative growth in %),[1],19%
Cc1cc(C2=NC(C)(C)Nc3c(Cl)cccc32)cnc1C(F)F [Ex-8],growth of the pathogen (relative growth in %),[1],19%
Cc1cc(C2=NC(C)(C)N(C)c3c(Cl)cccc32)cnc1C(F)F [Ex-9],growth of the pathogen (relative growth in %),[1],19%
same,growth of the pathogen (relative growth in %),[2],17%
CCCN1c2c(F)cccc2C(c2cnc(C(F)F)c(C)c2)=NC1(C)C [Ex-13],growth of the pathogen (relative growth in %),[1],19%
CCCCN1c2c(F)cccc2C(c2cnc(C(F)F)c(C)c2)=NC1(C)C [Ex-14],growth of the pathogen (relative growth in %),[1],19%
Cc1cc(C2=NC(C)(C)N(CC(C)C)c3c(F)cccc32)cnc1C(F)F [Ex-15],growth of the pathogen (relative growth in %),[1],19%
CC(=O)N1c2c(F)cccc2C(c2cnc(C(F)F)c(C)c2)=NC1(C)C [Ex-20],growth of the pathogen (relative growth in %),[1],19%
Cc1cc(C2=NC(C)(C)N(C)c3c(Cl)cccc32)cnc1C [Ex-22],growth of the pathogen (relative growth in %),[1],19%
same,growth of the pathogen (relative growth in %),[2],17%
Cc1cc(C2=NC(C)(C)Nc3c(Cl)cccc32)cnc1C [Ex-23],growth of the pathogen (relative growth in %),[1],19%
Cc1cc(C2=NC(C)(C)N(C#N)c3ccccc32)cnc1C(F)F [Ex-27],growth of the pathogen (relative growth in %),[1],19%
Cc1cc(C2=NC(C)(C)N(C#N)c3c(Cl)cccc32)cnc1C [Ex-28],growth of the pathogen (relative growth in %),[1],19%
Cc1ccc2c(c1)NC(C)(C)N=C2c1cnc(C(F)F)c(C)c1 [Ex-31],growth of the pathogen (relative growth in %),[1],19%
Cc1cc(C2=NC(C)(C)N(C#N)c3ccccc32)cnc1C [Ex-35],growth of the pathogen (relative growth in %),[1],19%
Cc1cc(C2=NC(C)(C)N(C)c3cc(F)ccc32)cnc1C(F)F [Ex-36],growth of the pathogen (relative growth in %),[1],19%
Cc1cc(C2=NC(C)(C)N(C)c3cc(Cl)ccc32)cnc1C(F)F [Ex-38],growth of the pathogen (relative growth in %),[1],19%
same,growth of the pathogen (relative growth in %),[2],17%
Cc1ccc2c(c1)N(C)C(C)(C)N=C2c1cnc(C(F)F)c(C)c1 [Ex-40],growth of the pathogen (relative growth in %),[1],19%
Cc1cc(C2=NC(C)(C)N(C)c3c(Br)cccc32)cnc1C(F)F [Ex-50],growth of the pathogen (relative growth in %),[1],19%
same,growth of the pathogen (relative growth in %),[2],17%
Cc1cc(C2=NC(C)(C)N(C)c3c(C)cccc32)cnc1C(F)F [Ex-53],growth of the pathogen (relative growth in %),[1],19%
same,growth of the pathogen (relative growth in %),[2],17%
Cc1cc(C2=NC(C)(C)N(C#N)c3cc(F)ccc32)cnc1C(F)F [Ex-55],growth of the pathogen (relative growth in %),[1],19%
C#Cc1cccc2c1NC(C)(C)N=C2c1cnc(C(F)F)c(C)c1 [Ex-81],growth of the pathogen (relative growth in %),[2],17%
Cc1cc(C2=NC(C)(C)N(C)c3c2ccc(F)c3F)cnc1C(F)F [Ex-91],growth of the pathogen (relative growth in %),[1],19%
same,growth of the pathogen (relative growth in %),[2],17%

# Source: patent US20240351995A1, “(3-PIRYDYL)-QUINAZOLINE” (BASF SE, priority 2021, published 2024)
